According to PubChem BioAssay AID256 (DTP/NCI, 2004):
Where “and” joins values, the source holds several entries; their conditions need not be identical. Equal values may be shown once. Inconclusive results and toxic doses are left out. Rule for the calls: active = survival T/C of 150% or more; inactive = T/C below 125% in these data.

Test system: CD2F1 mice, L1210 leukemia ip, survival T/C
Experiment: NCI In Vivo Anticancer Drug Screen. Data for tumor model L1210 Leukemia (intraperitoneal) in CD2F1 (CDF1) mice
Settings: higher = longer survival
Procedure, shortened: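 Compound-dosed mice with transplantable tumor versus matched vehicle controls; endpoint ratio T/C reported.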

[1] = endpoint: mean survival time, dose: 100.0 mg/kg/injection, schedule: Q01DX009 (ip), vehicle: saline with Tween-80
[2] = endpoint: mean survival time, dose: 100.0 mg/kg/injection, schedule: Q04DX003 (ip), vehicle: saline with Tween-80
[3] = endpoint: mean survival time, dose: 200.0 mg/kg/injection, schedule: Q01DX009 (ip), vehicle: saline with Tween-80
[4] = endpoint: mean survival time, dose: 200.0 mg/kg/injection, schedule: Q04DX003 (ip), vehicle: saline with Tween-80
[5] = endpoint: mean survival time, dose: 400.0 mg/kg/injection, schedule: Q01DX009 (ip), vehicle: saline with Tween-80
[6] = endpoint: mean survival time, dose: 400.0 mg/kg/injection, schedule: Q04DX003 (ip), vehicle: saline with Tween-80
[7] = endpoint: mean survival time, dose: 50.0 mg/kg/injection, schedule: Q01DX009 (ip), vehicle: saline with Tween-80
[8] = endpoint: mean survival time, dose: 75.0 mg/kg/injection, schedule: Q01DX001 (ip), vehicle: saline
[9] = endpoint: mean survival time, dose: 150.0 mg/kg/injection, schedule: Q01DX001 (ip), vehicle: saline
[10] = endpoint: mean survival time, dose: 100.0 mg/kg/injection, schedule: Q01DX001 (ip), vehicle: saline with Tween-80
[11] = endpoint: mean survival time, dose: 200.0 mg/kg/injection, schedule: Q01DX001 (ip), vehicle: saline with Tween-80
[12] = endpoint: mean survival time, dose: 400.0 mg/kg/injection, schedule: Q01DX001 (ip), vehicle: saline with Tween-80
[13] = endpoint: mean survival time, dose: 100.0 mg/kg/injection, schedule: Q01DX001 (ip), vehicle: saline
[14] = endpoint: mean survival time, dose: 200.0 mg/kg/injection, schedule: Q01DX001 (ip), vehicle: saline
[15] = endpoint: mean survival time, dose: 400.0 mg/kg/injection, schedule: Q01DX001 (ip), vehicle: saline
[16] = endpoint: mean survival time, dose: 12.5 mg/kg/injection, schedule: Q04DX003 (ip), vehicle: saline with Tween-80

Measured: T/C

CC1(CCOCc2ccccc2)NC(=O)NC1=O (stereo not given)
inactive: [1] 95 % of control | [2] 97 % of control | [3] 95 % of control | [4] 98 % of control | [5] 98 % of control | [6] 98 % of control

NC(CC(=O)NO)C(=O)O (stereo not given)
inactive: endpoint: mean survival time, dose: 12.5 mg/kg/injection, schedule: Q01DX009 (ip), vehicle: saline 95 % of control | endpoint: mean survival time, dose: 25.0 mg/kg/injection, schedule: Q01DX009 (ip), vehicle: saline 101 % of control | endpoint: mean survival time, dose: 50.0 mg/kg/injection, schedule: Q01DX009 (ip), vehicle: saline 101 % of control | endpoint: mean survival time, dose: 100.0 mg/kg/injection, schedule: Q01DX009 (ip), vehicle: saline 95 % of control | endpoint: mean survival time, dose: 200.0 mg/kg/injection, schedule: Q01DX009 (ip), vehicle: saline 111 % of control and 95 % of control | endpoint: mean survival time, dose: 400.0 mg/kg/injection, schedule: Q01DX009 (ip), vehicle: saline 103 % of control

CC(C)=C(C)c1ccccc1
inactive: [7] 103 % of control | [1] 106 % of control | [3] 103 % of control

C1CCC(NC2CCCCC2)CC1
inactive: endpoint: mean survival time, dose: 25.0 mg/kg/injection, schedule: Q01DX001 (ip), vehicle: saline with Tween-80 104 % of control | endpoint: mean survival time, dose: 50.0 mg/kg/injection, schedule: Q01DX001 (ip), vehicle: saline with Tween-80 101 % of control | endpoint: median survival time, dose: 25.0 mg/kg/injection, schedule: Q01DX009 (ip), vehicle: saline 94 % of control | endpoint: median survival time, dose: 50.0 mg/kg/injection, schedule: Q01DX009 (ip), vehicle: saline 100 % of control | endpoint: median survival time, dose: 100.0 mg/kg/injection, schedule: Q01DX009 (ip), vehicle: saline 94 % of control | endpoint: median survival time, dose: 200.0 mg/kg/injection, schedule: Q01DX009 (ip), vehicle: saline 97 % of control | endpoint: median survival time, dose: 400.0 mg/kg/injection, schedule: Q01DX009 (ip), vehicle: saline 100 % of control

CC(O)(C(=O)O)c1ccccc1 (stereo not given)
inactive: [8] 102 % of control | [9] 112 % of control | endpoint: mean survival time, dose: 300.0 mg/kg/injection, schedule: Q01DX001 (ip), vehicle: saline 100 % of control

CC12CCCCC1CCC(Br)C2=O (stereo not given)
inactive: [2] 102 % of control | [4] 100 % of control | [6] 102 % of control

O=[N+]([O-])c1ccc2c(c1)COCO2
inactive: [1] 97 % of control | [3] 97 % of control | [5] 96 % of control

CCC/C=C/C(O)C(C)C(C)C (stereo not given)
inactive: [7] 103 % of control | [1] 103 % of control | [3] 98 % of control

COc1cc(C=C(c2ccc(N(C)C)cc2)c2ccc(N(C)C)cc2)c(OC)c2ccccc12
inactive: [10] 102 % of control | endpoint: mean survival time, dose: 100.0 mg/kg/injection, schedule: Q04DX002 (ip), vehicle: saline with Tween-80 90 % of control | [11] 101 % of control | endpoint: mean survival time, dose: 200.0 mg/kg/injection, schedule: Q04DX002 (ip), vehicle: saline with Tween-80 87 % of control | [12] 90 % of control

Cc1cccc(C)c1N=C(NO)c1ccccc1
inactive: [13] 102 % of control | endpoint: mean survival time, dose: 100.0 mg/kg/injection, schedule: Q04DX003 (ip), vehicle: saline 106 % of control | [14] 100 % of control | endpoint: mean survival time, dose: 200.0 mg/kg/injection, schedule: Q04DX003 (ip), vehicle: saline 112 % of control | [15] 90 % of control | endpoint: mean survival time, dose: 400.0 mg/kg/injection, schedule: Q04DX003 (ip), vehicle: saline 100 % of control

CN(C)N=Nc1ccccc1C(=O)NCC(N)=O
inactive: endpoint: mean survival time, dose: 18.75 mg/kg/injection, schedule: Q01DX009 (ip), vehicle: Klucel (hydroxypropylcellulose) (HPC) 103 % of control and 107 % of control | endpoint: mean survival time, dose: 37.5 mg/kg/injection, schedule: Q01DX009 (ip), vehicle: Klucel (hydroxypropylcellulose) (HPC) 115 % of control and 112 % of control

O=C(CN1CCOCC1)Nc1nc(-c2ccc(Cl)cc2)cs1
inactive: endpoint: median survival time, dose: 12.5 mg/kg/injection, schedule: Q01DX009 (ip), vehicle: saline with Tween-80 102 % of control | endpoint: median survival time, dose: 25.0 mg/kg/injection, schedule: Q01DX009 (ip), vehicle: saline with Tween-80 98 % of control | endpoint: median survival time, dose: 50.0 mg/kg/injection, schedule: Q01DX009 (ip), vehicle: saline with Tween-80 98 % of control | endpoint: median survival time, dose: 100.0 mg/kg/injection, schedule: Q01DX009 (ip), vehicle: saline with Tween-80 105 % of control | endpoint: median survival time, dose: 200.0 mg/kg/injection, schedule: Q01DX009 (ip), vehicle: saline with Tween-80 93 % of control

Brc1ccc(Br)cc1
inactive: [1] 103 % of control | [3] 100 % of control | [5] 97 % of control

Nc1c(Cl)c(Cl)c(Br)c(Cl)c1Cl
inactive: [2] 91 % of control | [4] 105 % of control | [6] 97 % of control

ClC1(Cl)OC(Cl)(Cl)C(Cl)(Cl)OC1(Cl)Cl
inactive: endpoint: mean survival time, dose: 50.0 mg/kg/injection, schedule: Q04DX003 (ip), vehicle: other 95 % of control | endpoint: mean survival time, dose: 100.0 mg/kg/injection, schedule: Q04DX003 (ip), vehicle: other 91 % of control | endpoint: mean survival time, dose: 200.0 mg/kg/injection, schedule: Q04DX003 (ip), vehicle: other 97 % of control

COc1ccc(NC(=O)Oc2cc(=O)oc3ccccc23)c(Cl)c1
inactive: endpoint: mean survival time, dose: 50.0 mg/kg/injection, schedule: Q01DX009 (ip), vehicle: Klucel (hydroxypropylcellulose) (HPC) 107 % of control | endpoint: mean survival time, dose: 100.0 mg/kg/injection, schedule: Q01DX009 (ip), vehicle: Klucel (hydroxypropylcellulose) (HPC) 96 % of control | endpoint: mean survival time, dose: 200.0 mg/kg/injection, schedule: Q01DX009 (ip), vehicle: Klucel (hydroxypropylcellulose) (HPC) 100 % of control

O=C1CC(c2ccccc2)=NO1
inactive: [10] 106 % of control | [11] 101 % of control | [12] 101 % of control

CC(C)(C)C1CC[N-]CC1.CC(C)(C)C1CC[N-]CC1.[Cl][Pt+2][Cl]
inactive: endpoint: mean survival time, dose: 75.0 mg/kg/injection, schedule: Q04DX002 (ip), vehicle: saline with Tween-80 95 % of control | endpoint: mean survival time, dose: 150.0 mg/kg/injection, schedule: Q04DX002 (ip), vehicle: saline with Tween-80 98 % of control | endpoint: mean survival time, dose: 300.0 mg/kg/injection, schedule: Q04DX002 (ip), vehicle: saline with Tween-80 107 % of control

CCCCCCCC/C=C\CCCCCCCC(=O)NCCN(CC)CC
inactive: [8] 101 % of control | [9] 101 % of control

Cn1ncc2c(NCc3ccccc3)ncnc21
inactive: endpoint: mean survival time, dose: 18.0 mg/kg/injection, schedule: Q01DX009 (ip), vehicle: saline with Tween-80 114 % of control | endpoint: mean survival time, dose: 37.5 mg/kg/injection, schedule: Q01DX009 (ip), vehicle: saline with Tween-80 115 % of control

COC(=O)[C@@H]1[C@@H](O)[C@H](OC(=O)c2cc(OC)c(OC)c(OC)c2)C[C@@H]2CN3CCc4c([nH]c5ccccc45)[C@H]3C[C@@H]21
inactive: endpoint: mean survival time, dose: 1.56 mg/kg/injection, schedule: Q01DX009 (ip), vehicle: saline sonified 93 % of control | endpoint: mean survival time, dose: 3.13 mg/kg/injection, schedule: Q01DX009 (ip), vehicle: saline sonified 95 % of control | endpoint: mean survival time, dose: 6.25 mg/kg/injection, schedule: Q01DX009 (ip), vehicle: saline sonified 102 % of control | [16] 103 % of control | endpoint: mean survival time, dose: 25.0 mg/kg/injection, schedule: Q04DX003 (ip), vehicle: saline with Tween-80 103 % of control | endpoint: mean survival time, dose: 50.0 mg/kg/injection, schedule: Q04DX003 (ip), vehicle: saline with Tween-80 103 % of control

O=C1CCC(=O)N1Br
inactive: [1] 101 % of control | [2] 100 % of control | [3] 96 % of control | [4] 95 % of control | [5] 101 % of control | [6] 91 % of control

Cc1cc(Cc2c(C)c(C)c(Cc3cc(C)cc(C(C)(C)C)c3O)c(C)c2C)c(O)c(C(C)(C)C)c1
inactive: endpoint: mean survival time, dose: 100.0 mg/kg/injection, schedule: Q04DX003 (ip), vehicle: saline sonified 90 % of control | endpoint: mean survival time, dose: 200.0 mg/kg/injection, schedule: Q04DX003 (ip), vehicle: saline sonified 88 % of control | endpoint: mean survival time, dose: 400.0 mg/kg/injection, schedule: Q04DX003 (ip), vehicle: saline sonified 93 % of control

Nc1nc2c(ncn2-c2ccc3ccccc3c2)c(=O)[nH]1
inactive: [10] 91 % of control | [11] 88 % of control | [12] 95 % of control

O=C(O)c1ccc([N+](=O)[O-])cc1.[Ag]
inactive: endpoint: mean survival time, dose: 3.13 mg/kg/injection, schedule: Q01DX009 (ip), vehicle: saline with Tween-80 102 % of control | endpoint: mean survival time, dose: 6.25 mg/kg/injection, schedule: Q01DX009 (ip), vehicle: saline with Tween-80 102 % of control | endpoint: mean survival time, dose: 6.25 mg/kg/injection, schedule: Q04DX003 (ip), vehicle: saline with Tween-80 96 % of control | endpoint: mean survival time, dose: 12.5 mg/kg/injection, schedule: Q01DX009 (ip), vehicle: saline with Tween-80 98 % of control | [16] 96 % of control

NC(=O)c1cn(C2CCCCC2)c2ncccc12
inactive: [13] 96 % of control | [14] 96 % of control | [15] 102 % of control
